Read-outs that look alike come from different tables or passages of the source.

The subject of data set [1] is P. falciparum K1. As to the kind of experiment: In vitro microplate 3H-hypoxanthine incorporation assay against P. falciparum K1. To be noted: for S.I. = IC50 (Cyt.)/IC50 (P.f. K1): L-6 cytotoxicity over P.f. K1; for IC50: Plasmodium falciparum. Type of data set: cell-based, Plasmodium falciparum. The method, then:
(§1) Compounds were tested for their activities against strains of P. falciparum and T. b. rhodesiense via microplate assays. Their cytotoxicity was determined with rat skeletal myoblasts (L-6 cells). Chloroquine and melarsoprol served as standards (Table 1).
(§2) In vitro activity against erythrocytic stages of P. falciparum was determined using a ^3H-hypoxanthine incorporation assay, using the drug-sensitive NF54 strain [21] or the chloroquine- and pyrimethamine-resistant K1 strain [22]. Compounds were dissolved in DMSO at 10 mg/mL and added to parasite cultures incubated in RPMI 1640 medium without hypoxanthine, supplemented with HEPES (5.94 g/L), NaHCO3 (2.1 g/L), neomycin (100 U/mL), Albumax (5 g/L) and washed human red cells A+ at 2.5% hematocrit (0.3% parasitemia). Serial drug dilutions of 11 three-fold dilution steps covering a range from 100 to 0.002 µg/mL were prepared. The 96-well plates were incubated in a humidified atmosphere at 37 °C; 4% CO2, 3% O2, 93% N2. After 48 h, 0.05 mL of ^3H-hypoxanthine (=0.5 µCi) was added to each well of the plate. The plates were incubated for an additional 24 h under the same conditions. The plates were then harvested with a Betaplate cell harvester (Wallac, Zurich, Switzerland). The red blood cells were transferred onto a glass fiber filter and washed with distilled water. The dried filters were inserted into a plastic foil with 10 mL of scintillation fluid and counted in a Betaplate liquid scintillation counter (Wallac, Zurich, Switzerland). IC50 values were calculated from sigmoidal inhibition curves by linear regression using Microsoft Excel. Chloroquine (Sigma C6628) was used as control.

Data set [2] deals with T. b. rhodesiense STIB 900. As to the kind of experiment: In vitro microplate resazurin assay against T. brucei rhodesiense. The class given is cell-based, Trypanosoma brucei rhodesiense. The following applies: for S.I. = IC50 (Cyt.)/IC50 (T.b.r.): L-6 cytotoxicity over T.b.r.; for IC50: Trypanosoma brucei, STIB 900 bloodstream forms, average of four determinations, read-out: T. Brucei Rhodesiense IC50. The protocol:
as §1
Minimum essential medium (50 µL) supplemented with 25 mM HEPES, 1 g/L additional glucose, 1% MEM nonessential amino acids (100×), 0.2 mM 2-mercaptoethanol, 1 mM Na-pyruvate and 15% heat inactivated horse serum was added to each well of a 96-well microtiter plate. Serial drug dilutions of 11 three-fold dilution steps covering a range from 100 to 0.002 μg/mL were prepared. Then, 4 × 10^3 bloodstream forms of T. b. rhodesiense STIB 900 in 50 µL was added to each well and the plate incubated at 37 °C under a 5% CO2 atmosphere for 70 h. Ten microliters of resazurin solution (resazurin, 12.5 mg in 100 mL double-distilled water) was then added to each well and incubation continued for an additional 2–4 h. The plates were then read with a Spectramax Gemini XS microplate fluorometer (Molecular Devices Cooperation, Sunnyvale, CA, USA) using an excitation wavelength of 536 nm and an emission wavelength of 588 nm. Data were analyzed with the graphic program Softmax Pro (Molecular Devices Cooperation, Sunnyvale, CA, USA), which calculated IC50 values by linear regression and 4-parameter logistic regression from the sigmoidal dose inhibition curves. Melarsoprol (Arsobal Sanofi-Aventis, received from WHO) was used as control.

Data set [3] can be described thus: In vitro cytotoxicity with L-6 cells. The class given is cell-based, rat. The method, then:
as §1
(§3) Assays were performed in 96-well microtiter plates, each well containing 0.1 mL of RPMI 1640 medium supplemented with 1% L-glutamine (200 mM) and 10% fetal bovine serum and 4000 L-6 cells (a primary cell line derived from rat skeletal myoblasts, ATCC CRL-1458™). Serial drug dilutions of 11 three-fold dilution steps covering a range from 100 to 0.002 μg/mL were prepared. After 70 h of incubation, the plates were inspected under an inverted microscope to assure the growth of the controls and sterile conditions. Then, 0.01 mL resazurin solution (resazurin, 12.5 mg in 100 ml double-distilled water) was added to each well and the plates incubated for another 2 h. The plates were read with a Spectramax Gemini XS microplate fluorometer (Molecular Devices Cooperation, Sunnyvale, CA, USA) using an excitation wavelength of 536 nm and an emission wavelength of 588 nm. The IC50 values were calculated by linear regression from the sigmoidal dose inhibition curves using SoftmaxPro software (Molecular Devices Cooperation, Sunnyvale, CA, USA). Podophyllotoxin (Sigma P4405) was used as control.

The next data set concerns P. falciparum NF54. Description: In vitro microplate 3H-hypoxanthine incorporation assay against P. falciparum NF54. The class given is cell-based, Plasmodium falciparum. The protocol:
as §1, §2

In data set [4] the test system is P. falciparum K1. The arrangement: method as in doi:10.1007/s00706-007-0634-1. To be noted: cited from earlier work; for IC50: K1 strain resistant to chloroquine and pyrimethamine; for S.I. = IC50 (Cyt.)/IC50 (P.f. K1): L-6 cytotoxicity over P.f. K1.
Data set [5] has as its system T. b. rhodesiense STIB 900. Also on record: method as in doi:10.1007/s00706-007-0634-1. To be noted: cited from earlier work; for S.I. = IC50 (Cyt.)/IC50 (T.b.r.): L-6 cytotoxicity over T.b.r.; for IC50: read-out: T. Brucei Rhodesiense IC50.
The subject of data set [6] is L-6 cells. Also on record: method as in doi:10.1007/s00706-007-0634-1. The following applies: rat skeletal myoblasts; read-out: Cytotox. L-6 Cells IC50; cited from earlier work.
Data set [7] relates to L-6 cells. Description: In vitro cytotoxicity with L-6 cells. The class given is cell-based, rat. To be noted: rat skeletal myoblasts; average of four determinations; read-out: Cytotox. L-6 Cells IC50. The protocol: as §1, §3
Setting [8] is: K1 strain resistant to chloroquine and pyrimethamine, average of four determinations, read-out: P. Falciparum K1 IC50.

Take `CN(C)C12CCN(CCN)C([C@@H](c3ccccc3)C1)[C@@H](c1ccccc1)C2` (racemic) [Compound 6, rac-(7R,8R)-2-[5-(Dimethylamino)-7,8-diphenyl-2-azabicyclo[3.2.2]nonan-2-yl]ethan-1-amine]: the “S.I. = IC50 (Cyt.)/IC50 (P.f. K1)” value in the data set with P. falciparum K1 [1] was found to be 59.7. Besides, the 50% inhibitory concentration (IC50) is 360 nM in the data set with P. falciparum K1 [1] (setting [8]) and 2920 nM in data set [2]. Moreover, in data set [2], the “S.I. = IC50 (Cyt.)/IC50 (T.b.r.)” value worked out at 7.36. This compound also displayed a 50% inhibitory concentration (IC50) at 72 h in data set [3] (rat) of 21500 nM.

As for `CCN(CC)CCCC(C)Nc1ccnc2cc(Cl)ccc12` (stereo not drawn) [CQ, chloroquine, reference compound], the “S.I. = IC50 (Cyt.)/IC50 (P.f. NF54)” value in the data set on P. falciparum NF54 (L-6 cytotoxicity over P.f. NF54) was 23308. In addition, the IC50 came out at 3.9 nM in the data set on P. falciparum NF54 (Plasmodium falciparum, NF54, read-out: P. Falciparum NF54 IC50) and 150 nM in the data set with P. falciparum K1 [1] (K1, read-out: P. Falciparum K1 IC50). In addition, the “S.I. = IC50 (Cyt.)/IC50 (P.f. K1)” value with P. falciparum K1 [1] stood at 606. Also, the IC50 at 72 h in data set [3] (rat skeletal myoblasts, average of four determinations, read-out: Cytotox. L-6 Cells IC50) was determined as 90900 nM.

Consider `Cc1ccc(S(=O)(=O)N2CCC3(N4CCCC4)CC(c4ccccc4)C2C(c2ccccc2)C3)cc1` (stereo not drawn) [Compound 17], for which the IC50 with P. falciparum K1 [4] is 1300 nM; in data set [5], 1260 nM; with L-6 cells [6], 9420 nM. Further, the “S.I. = IC50 (Cyt.)/IC50 (P.f. K1)” value in the data set with P. falciparum K1 [4] is listed as 7.25. In addition, the “S.I. = IC50 (Cyt.)/IC50 (T.b.r.)” value in data set [5] is listed as 7.48.

Regarding `NCCN1CCC2(N3CCCCC3)C[C@H](c3ccccc3)C1[C@@H](c1ccccc1)C2` (racemic) [Compound 7, rac-(7R,8R)-2-[7,8-Diphenyl-5-(piperidin-1-yl)-2-azabicyclo[3.2.2]nonan-2-yl]ethan-1-amine], in the data set on P. falciparum K1 [1], the “S.I. = IC50 (Cyt.)/IC50 (P.f. K1)” value is on record as 93.3. In addition, the half-maximal inhibitory concentration (IC50) was 180 nM with P. falciparum K1 [1] (setting [8]) and 1940 nM in data set [2]. For the same compound, the “S.I. = IC50 (Cyt.)/IC50 (T.b.r.)” value in data set [2] is listed as 8.66. In data set [3] (rat), this compound showed an IC50 at 72 h of 16800 nM.

Regarding `COc1cc([C@@H]2c3cc4c(cc3[C@H](O)[C@H]3COC(=O)[C@H]23)OCO4)cc(OC)c1OC` [POD, podophyllotoxin, reference compound], the IC50 with L-6 cells [7] came out at 12 nM.

On to `Cc1ccc(S(=O)(=O)N2CCC3(N4CCCCC4)CC(c4ccccc4)C2C(c2ccccc2)C3)cc1` (stereo not drawn) [Compound 16], for which, in the data set on P. falciparum K1 [4], the IC50 is 1260 nM and the “S.I. = IC50 (Cyt.)/IC50 (P.f. K1)” value is on record as 8.33. In addition, in data set [5], the “S.I. = IC50 (Cyt.)/IC50 (T.b.r.)” value is on record as 3.96 and the IC50 is 2650 nM. For the same compound, the IC50 in the data set with L-6 cells [6] was 10500 nM.

With `NCCN1CC2[C@H](c3ccccc3)CC(N3CCCC3)(C[C@H]2c2ccccc2)C1` (racemic) [Compound 9, rac-(6R,9R)-2-[6,9-Diphenyl-1-(pyrrolidin-1-yl)-3-azabicyclo[3.2.2]nonan-3-yl]ethan-1-amine], the “S.I. = IC50 (Cyt.)/IC50 (P.f. K1)” value in the data set with P. falciparum K1 [1] is listed as 14.5. In addition, the IC50 in the data set on P. falciparum K1 [1] (setting [8]) came to 630 nM. Besides, in data set [2], the “S.I. = IC50 (Cyt.)/IC50 (T.b.r.)” value amounted to 21.7 and the IC50 turned out to be 420 nM. The compound further registered an IC50 at 72 h in data set [3] (rat) of 9120 nM.

For `NCCN1CCC2(N3CCCC3)C[C@H](c3ccccc3)C1[C@@H](c1ccccc1)C2` (racemic) [Compound 8, rac-(7R,8R)-2-[7,8-Diphenyl-5-(pyrrolidin-1-yl)-2-azabicyclo[3.2.2]nonan-2-yl]ethan-1-amine], the “S.I. = IC50 (Cyt.)/IC50 (P.f. K1)” value in the data set with P. falciparum K1 [1] came out at 47.8. The IC50 with P. falciparum K1 [1] (setting [8]) worked out at 540 nM. In data set [2], the “S.I. = IC50 (Cyt.)/IC50 (T.b.r.)” value is on record as 22.8 and the IC50 came out at 1130 nM. In addition, half-maximal inhibition in data set [3] (rat) (IC50 at 72 h) required 25800 nM.

For orientation: IC50 means the point on the concentration scale where inhibition reaches its midpoint.

The record behind these values is article PMC9572860, “Antiprotozoal Activity of Azabicyclo-Nonanes Linked to Tetrazole or Sulfonamide Cores” (Molecules, 2022).
